From patent US20250276063A1, “PLACENTA-DERVIED NK CELLS AS A SENOL YTIC FOR THERAPEUTIC AND OTHER USES” (Celularity Inc., priority 2021, published 2025)

Legend:
CD34+ cells = test: NK cell expansion from CD34+ cells cultured with compound, Day 35; type: cell-based, human; conditions: for supported NK expansion: compound 10 μM during the first 14 days of the culture; for expansion compared to SR1 at Day 35: compound 10 μM, SR1 10 μM positive control
Excerpt: UCB CD34+ cells were cultivated in presence of cytokines including thrombopoietin, SCF, Flt3 ligand, IL-7, IL-15 and IL-2 for 35 days to produce three-stage NK cells, as described in Example 1. Multi-color flow cytometry was used to determine the phenotypic characteristics of three-stage NK cells.
(§1) For biological testing, the compounds were provided to culture to evaluate their effects on NK cell expansion and differentiation. Specifically, donors of CD34+ cells (StemCell Technology) were thawed and expanded in vitro following NK culture protocol. During the first 14 days of the culture, each CRL compounds was dissolved in DMSO and added to the culture at 10 μM concentration. SR1 (at 10 μM) served as a positive control compound, while DMSO alone without any compound served as a negative control. At the end of the culture on Day 35, cell expansion, natural killer (NK) cell differentiation and cytotoxicity of the cells against K562 tumor cell line were characterized. Due to the large number of the compounds, the testing was performed in two experiments, CRL1-11 and CRL 12-22. The same donors were used for each experiment. Positive and negative controls were also included in both experiments.

K562 tumor cells = test: Cytotoxicity assay of compound cultured cells against K562 tumor cells; type: cell-based; conditions: 10:1 effector to target ratio; both donors
Method: as §1
Cytotoxicity assay was run using compound cultured cells against K562 tumor cells at 10:1 effector to target ratio (FIG. 5) to evaluate cell functions.

Compound | supported NK expansion (CD34+ cells) | killing activities compared to cells cultured with SR1 (K562 tumor cells) | expansion compared to SR1 at Day 35 (CD34+ cells)
CCC(C)Nc1cc(-c2cncc(C#N)c2)nc(NCCc2c[nH]c3ccccc23)n1 (centres unmarked) [CRL7, 5-(2-((2-(1H-indol-3-yl)ethyl)amino)-6-(sec-butylamino)pyrimidin-4-yl)nicotinonitrile] | all the compounds except CRL7 and CRL13 supported PNK-007 expansion and differentiation | – | –
CCC(C)Nc1nc(NCCc2c[nH]c3ccccc23)c2ccccc2n1 (centres unmarked) [CRL13, N^4-(2-(H-indol-3-yl)ethyl)-N^2-(sec-butyl)quinazoline-2,4-diamine] | all the compounds except CRL7 and CRL13 supported PNK-007 expansion and differentiation | – | –
CC(C)c1csc2c(NCCc3c[nH]c4ccccc34)nc(-c3cncc(C#N)c3)nc12 [CRL17, 5-(4-((2-(1H-indol-3-yl)ethyl)amino)-7-isopropylthieno[3,2-d]pyrimidin-2-yl)nicotinonitrile] | – | increased killing activities of the cells | slightly less expansion compared to SR1
CC(C)c1csc2c(NCCc3c[nH]c4ccccc34)nc(-c3cncc(F)c3)nc12 [CRL18, N-(2-(1H-indol-3-yl)ethyl)-2-(5-fluoropyridin-3-yl)-7-isopropylthieno[3,2-d]pyrimidin-4-amine] | – | increased killing activities of the cells | slightly less expansion compared to SR1
Fc1cncc(-c2nc(NCCc3c[nH]c4ccccc34)c3occc3n2)c1 [CRL19, N-(2-(1H-indol-3-yl)ethyl)-2-(5-fluoropyridin-3-yl)furo[3,2-d]pyrimidin-4-amine] | supported cell expansion the best | – | –
Cc1cncc(-c2nc(NCCc3c[nH]c4ccccc34)c3occc3n2)c1 [CRL20, N-(2-(1H-indol-3-yl)ethyl)-2-(5-methylpyridin-3-yl)furo[3,2-d]pyrimidin-4-amine] | supported cell expansion the best | – | –
Cc1cncc(-c2nc(NCCc3c[nH]c4ccccc34)c3scc(C(C)C)c3n2)c1 [CRL21, N-(2-(1H-indol-3-yl)ethyl)-7-isopropyl-2-(5-methylpyridin-3-yl)thieno[3,2-d]pyrimidin-4-amine] | – | increased killing activities of the cells | slightly less expansion compared to SR1
N#Cc1cncc(-c2nc(NCCc3c[nH]c4ccccc34)c3occc3n2)c1 [CRL22, 5-(4-((2-(1H-indol-3-yl)ethyl)amino)furo[3,2-d]pyrimidin-2-yl)nicotinonitrile] | supported cell expansion the best | – | –
